Experimental findings from patent US20200239530A1, “COMPOUNDS AND METHODS OF MODULATING PROTEIN DEGRADATION” (Vividion Therapeutics, Inc., priority 2017, published 2020) are described below.

Common to all, as to test: Cysteine liganding, probe competition
Assay type in all cases: binding

One assay addresses T1, UniProt Q6AZZ1 (Homo sapiens, UniProt Q6AZZ1).
T1 construct: 200 μL of lysate containing 5 mg/ml proteome was treated with 2 μL of 100× compound stock; endogenous in cells
T1 sequence (Q6AZZ1 1-485): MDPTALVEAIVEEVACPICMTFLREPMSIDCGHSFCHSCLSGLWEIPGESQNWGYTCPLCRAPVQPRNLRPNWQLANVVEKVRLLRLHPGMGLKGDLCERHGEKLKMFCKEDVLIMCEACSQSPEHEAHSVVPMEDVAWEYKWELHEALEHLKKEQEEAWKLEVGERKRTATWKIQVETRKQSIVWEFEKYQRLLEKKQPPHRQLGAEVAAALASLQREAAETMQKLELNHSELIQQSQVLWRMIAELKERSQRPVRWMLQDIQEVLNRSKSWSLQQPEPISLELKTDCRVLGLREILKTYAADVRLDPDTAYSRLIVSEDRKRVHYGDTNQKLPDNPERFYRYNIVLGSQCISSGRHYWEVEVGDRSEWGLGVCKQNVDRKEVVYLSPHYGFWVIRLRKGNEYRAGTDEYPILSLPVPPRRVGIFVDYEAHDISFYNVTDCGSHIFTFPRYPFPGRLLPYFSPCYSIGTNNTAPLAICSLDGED
An excerpt: (§1) The following 96-well sample prep protocol was used for sample preparation.

For a further assay, the target named is T2, UniProt Q9BZY9 (Homo sapiens, UniProt Q9BZY9).
T2 construct: 200 μL of lysate containing 5 mg/ml proteome was treated with 2 μL of 100× compound stock; endogenous in cells
T2 sequence (Q9BZY9 1-425): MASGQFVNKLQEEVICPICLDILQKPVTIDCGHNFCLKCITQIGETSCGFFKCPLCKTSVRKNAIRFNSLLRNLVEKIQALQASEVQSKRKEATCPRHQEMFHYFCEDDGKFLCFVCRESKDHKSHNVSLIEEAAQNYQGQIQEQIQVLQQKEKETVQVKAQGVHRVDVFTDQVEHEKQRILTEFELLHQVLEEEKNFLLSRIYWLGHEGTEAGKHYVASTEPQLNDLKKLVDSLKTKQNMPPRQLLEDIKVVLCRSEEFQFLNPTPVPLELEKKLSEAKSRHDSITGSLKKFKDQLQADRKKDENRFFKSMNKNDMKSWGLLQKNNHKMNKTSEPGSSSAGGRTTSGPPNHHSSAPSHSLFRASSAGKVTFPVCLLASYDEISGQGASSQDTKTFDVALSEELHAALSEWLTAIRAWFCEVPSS
Description: as §1

The next assay addresses T3, UniProt Q6ZTA4 (Homo sapiens, UniProt Q6ZTA4).
T3 construct: 200 μL of lysate containing 5 mg/ml proteome was treated with 2 μL of 100× compound stock; endogenous in cells
Description: as §1

For another assay, the target named is T4, UniProt O14508 (Homo sapiens, UniProt O14508).
T4 construct: 200 μL of lysate containing 5 mg/ml proteome was treated with 2 μL of 100× compound stock; endogenous in cells
T4 sequence (O14508 1-198): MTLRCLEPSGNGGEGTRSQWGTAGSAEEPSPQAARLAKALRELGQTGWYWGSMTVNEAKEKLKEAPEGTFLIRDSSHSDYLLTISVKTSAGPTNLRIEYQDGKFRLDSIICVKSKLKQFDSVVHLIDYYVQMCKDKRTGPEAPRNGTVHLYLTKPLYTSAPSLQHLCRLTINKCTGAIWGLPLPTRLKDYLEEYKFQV
The following applies: for inhibition at 100 µM: read-out: percent_inhibition.
Description: as §1

Another assay has as its target T5, UniProt Q8TE49 (Homo sapiens, UniProt Q8TE49).
T5 construct: Cells were resuspended in cold PBS on ice and sonicated with a probe sonicator to achieve lysis; endogenous in cells
T5 sequence (Q8TE49 1-926): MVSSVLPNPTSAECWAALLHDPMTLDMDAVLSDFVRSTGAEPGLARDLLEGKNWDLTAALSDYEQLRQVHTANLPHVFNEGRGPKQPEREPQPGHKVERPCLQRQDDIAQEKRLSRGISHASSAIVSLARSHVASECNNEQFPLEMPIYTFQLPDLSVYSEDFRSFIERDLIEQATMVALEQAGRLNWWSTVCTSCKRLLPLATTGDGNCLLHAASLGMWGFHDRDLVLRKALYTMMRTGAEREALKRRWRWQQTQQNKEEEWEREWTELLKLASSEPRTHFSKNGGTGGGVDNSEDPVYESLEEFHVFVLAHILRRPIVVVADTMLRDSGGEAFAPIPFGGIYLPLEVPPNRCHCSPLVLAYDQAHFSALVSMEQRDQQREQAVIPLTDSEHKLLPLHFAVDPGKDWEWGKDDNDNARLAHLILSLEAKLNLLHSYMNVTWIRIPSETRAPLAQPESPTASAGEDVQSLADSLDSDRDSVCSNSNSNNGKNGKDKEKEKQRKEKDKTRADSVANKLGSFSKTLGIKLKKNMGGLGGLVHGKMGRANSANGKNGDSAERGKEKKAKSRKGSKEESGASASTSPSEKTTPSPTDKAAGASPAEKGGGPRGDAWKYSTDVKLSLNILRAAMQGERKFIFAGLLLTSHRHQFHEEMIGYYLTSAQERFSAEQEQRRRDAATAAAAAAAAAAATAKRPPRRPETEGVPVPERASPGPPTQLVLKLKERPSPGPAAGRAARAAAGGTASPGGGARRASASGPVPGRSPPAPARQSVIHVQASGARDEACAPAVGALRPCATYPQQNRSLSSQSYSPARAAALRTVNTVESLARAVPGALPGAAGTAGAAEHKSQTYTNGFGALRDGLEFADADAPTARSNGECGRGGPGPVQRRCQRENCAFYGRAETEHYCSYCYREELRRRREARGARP
Description: as §1

The next assay deals with T6, UniProt Q9BY78 (Homo sapiens, UniProt Q9BY78).
T6 construct: 200 μL of lysate containing 5 mg/ml proteome was treated with 2 μL of 100× compound stock; endogenous in cells
T6 sequence (Q9BY78 1-433): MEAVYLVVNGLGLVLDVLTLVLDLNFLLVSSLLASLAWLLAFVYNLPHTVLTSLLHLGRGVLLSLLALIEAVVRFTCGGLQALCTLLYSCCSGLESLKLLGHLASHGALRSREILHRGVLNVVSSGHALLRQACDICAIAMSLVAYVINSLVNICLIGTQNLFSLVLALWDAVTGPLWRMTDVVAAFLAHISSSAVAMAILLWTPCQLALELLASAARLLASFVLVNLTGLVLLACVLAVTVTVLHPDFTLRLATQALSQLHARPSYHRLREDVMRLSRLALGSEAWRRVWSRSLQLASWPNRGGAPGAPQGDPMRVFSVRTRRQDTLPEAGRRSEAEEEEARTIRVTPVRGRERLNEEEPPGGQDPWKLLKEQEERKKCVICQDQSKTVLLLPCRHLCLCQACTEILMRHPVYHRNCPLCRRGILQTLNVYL
The following applies: for inhibition at 500 µM: read-out: percent_inhibition.
Description: as §1

Setting [1] is: read-out: KB02_500 uM_percent_inhibition.
Where [2] appears, read: read-out: KB05_500 uM_percent_inhibition.

Like-named read-outs stand apart in the source and are kept apart here.

T3 sequence (Q6ZTA4 whole entry, change not shown): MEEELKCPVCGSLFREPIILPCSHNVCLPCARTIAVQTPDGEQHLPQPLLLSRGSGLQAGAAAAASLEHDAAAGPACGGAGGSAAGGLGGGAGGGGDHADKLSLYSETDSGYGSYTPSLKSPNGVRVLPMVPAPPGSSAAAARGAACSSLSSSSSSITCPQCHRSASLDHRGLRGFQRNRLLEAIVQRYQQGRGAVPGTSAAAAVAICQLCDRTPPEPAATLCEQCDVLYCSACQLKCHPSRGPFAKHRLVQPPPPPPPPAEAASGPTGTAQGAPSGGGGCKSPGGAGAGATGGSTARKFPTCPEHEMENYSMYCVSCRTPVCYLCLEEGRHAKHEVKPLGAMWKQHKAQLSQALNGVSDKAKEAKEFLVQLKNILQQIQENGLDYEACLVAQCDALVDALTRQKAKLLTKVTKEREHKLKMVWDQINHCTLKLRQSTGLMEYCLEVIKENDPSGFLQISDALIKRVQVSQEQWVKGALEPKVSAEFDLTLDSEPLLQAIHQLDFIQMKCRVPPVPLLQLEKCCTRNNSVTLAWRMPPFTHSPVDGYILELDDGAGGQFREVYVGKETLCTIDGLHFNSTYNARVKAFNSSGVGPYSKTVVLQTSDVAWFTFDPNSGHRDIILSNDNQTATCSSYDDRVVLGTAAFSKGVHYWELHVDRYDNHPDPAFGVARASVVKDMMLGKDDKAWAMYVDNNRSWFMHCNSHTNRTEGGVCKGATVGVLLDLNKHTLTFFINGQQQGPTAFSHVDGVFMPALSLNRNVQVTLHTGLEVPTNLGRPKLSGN

In the case of `COc1ccc2c(c1)CCCN2C(=O)CCl` [KB02], the inhibition at 500 µM was 44% on UniProt Q6AZZ1 (setting [1]); 68% on UniProt Q9BZY9 (setting [1]); 44% on UniProt Q6ZTA4 (setting [1]); 28% on UniProt Q8TE49 (500 uM, read-out: KB02_500 uM_percent_inhibition); 31% on UniProt Q9BY78. For the same compound, on UniProt O14508, the inhibition at 100 µM turned out to be 14%.

With `C=CC(=O)N(c1ccccc1)c1ccc(Br)cc1` [KB05], the inhibition at 500 µM stood at 36% at UniProt Q6AZZ1 (setting [2]); 71% on UniProt Q9BZY9 (setting [2]); 37% on UniProt Q6ZTA4 (setting [2]); 23% at UniProt Q8TE49 (500 uM, read-out: KB05_500 uM_percent_inhibition); 30% at UniProt Q9BY78. Further, at UniProt O14508, the inhibition at 100 µM stood at 48%.

As to `O=C(CCl)Nc1cc(C(F)(F)F)cc(C(F)(F)F)c1` [KBO3], the “KB03_500 uM_percent_inhibition” value on UniProt Q6AZZ1 (500 uM) turned out to be 18%; on UniProt Q9BZY9 (500 uM), 48%; at UniProt Q6ZTA4 (500 uM), 6%; at UniProt Q8TE49 (500 uM), 56%. Also, the results for the percent_inhibition at UniProt O14508 (100 uM) and at UniProt Q9BY78 (500 uM) were 30% and 54%, respectively. Moreover, the “KB03_100 uM_percent_inhibition” value on UniProt Q8TE49 (100 uM) came to 52%.
